Assay results from US11052069B2, “Regimes of FXR agonists” (NOVARTIS AG, priority 2016, dated 2021).
Where two headings read alike, the source gives them in different places.

Tests used:
[1] = system: nonalcoholic steatohepatitis patients; details: long term administration; cited from earlier work
PBC = details: in vivo; cited from earlier work
ANIT-induced cholestasis = assay: Rat ANIT-induced cholestasis chronic treatment model; format: in vivo
Procedure: The efficacious concentration of Compound A was determined by PK/PD modeling from the rat ANIT-induced cholestasis chronic treatment model.

STAM mouse model of NASH = assay: Compound A versus OCA in the STAM mouse model of NASH (Example 2); format: in vivo; details: Compound A 3 to 30 mg/kg vs OCA 25 mg/kg, 3 weeks
Source text: FIGS. 1 and 2 describe an in-vivo efficacy study of Compound A versus OCA in the STAM model of non-alcoholic steatohepatitis for a treatment period of 6-9 weeks. FIG. 2 refers to the results on NAFLD Activity Score; FIG. 1 to Sirius-red positive area.
NASH was induced for 6 weeks prior to treatment with the indicated compound (and dose). Then, they have been treated with the indicated compound for 3 weeks prior to sacrifice.
(§1) NAFLD Activity Score from H&E stained liver sections from STAM disease (NASH) animals treated for 3 weeks with the indicated compound or vehicle. Disease was initiated in animals for 6 weeks prior to dosing and then animals were treated with Vehicle-1, Vehicle-2, Compound A (3 to 30 mg/kg) or OCA (25 mg/kg) for 3 weeks. NAS was determined by the method of Kleiner (Kleiner et al. 2005).
as §1, with “Sirius red” for “NAFLD Activity Score from H&E”, “Quantitative analysis” for “NAS was determined by the method”, “Sirius Red sections were performed using ImageJ software.” for “Kleiner (Kleiner et al. 2005).”

[2] = Human study SAD/MAD: safety, tolerability and plasma pharmacokinetics; format: in vivo
Procedure: (§2) Methods: SAD: Subjects received 5 to 750 mg of Compound A (7 cohorts: 6 active, 2 placebo); subjects from one cohort returned for a second dosing cycle with a high-fat meal (3 active, 1 placebo). MAD: Subjects received 5 to 250 mg of Compound A daily for 14 days (5 cohorts; 6 active, 2 placebo). All adverse events (AEs) were captured, and plasma levels of Compound A and PD biomarkers were determined pre- and post-dosing at various time points.

[3] = system: FGF19, C4, total bile acid; assay: Human study SAD/MAD: PD biomarkers; format: in vivo
Procedure: as §2

[4] = system: STAM model of non-alcoholic steatohepatitis; assay: In vivo efficacy study in the STAM model of non-alcoholic steatohepatitis (Example 1); set-up: species or system C57BL/6 mice
Procedure: Steatohepatitis (Treatment period: 6 to 9 wks and 9-12 weeks)
The study involves 14-day-pregnant C57BL/6 mice. NASH was established by a single subcutaneous injection of 200 μg streptozotocin (Sigma, USA) after birth and feeding with a high fat diet (HFD, 57% kcal fat, CLEA Japan, Japan) ad libitum after 4 weeks of age (day 28±2). Randomization of NASH mice into groups of 12 mice at 6 weeks of age (day 42±2) and groups of 12 mice at 9 weeks of age (day 63±2), the day before the start of treatment, respectively. NASH animals were dosed from age 6-9 weeks (Study 1), or from age 9-12 weeks (Study 2) with either: vehicle, Compound A, OCA or Compound A. A non-disease vehicle-control group of was included in both Study 1 and Study 2. These animals were fed with a normal diet (CE-2; CLEA Japan) ad libitum.
PK samples were collected and stored at ≤−60° C. Animals were dosed according to the dosing schedule below. Each animal was sacrificed 5 hours after last morning dose on the last day of study treatment (the evening dose of cenicriviroc or vehicle […] that day due to sacrifice).
Measurements: • The following parameters were measured or monitored daily: individual body weight, survival, clinical signs and behavior of mice. • Pharmacokinetic measurements: PK samples were collected from 4 animals per time point per compound. PK samples were for Compound A at hours 1 and 24 on Day 6 (n=4 per timepoint) for both monotherapy and combination groups. PK samples were taken for Cenicriviroc on Day 10 at hours 2 and 12 (n=4 per timepoint) for both monotherapy and combination groups. Only one PK sample was collected per animal using the first 8 animals per group, per the schedule below:
Mice were sacrificed at 9 weeks of age (study 1) or at 12 weeks of age (study 2).
The following samples were collected: plasma, liver (fresh liver samples for gene expression analysis were collected at 5 hr post the last morning (AM) dose for each animal), stool. Organ weight was measured.
The following biochemical assays were performed: Non-fasting blood glucose in whole blood by Life Check (Eidia, Japan); serum ALT by FUJI DRI-CHEM (Fujifilm, Japan); serum triglyceride; serum MCP-1, RANTES (CCLS) and MIP-1a/MIP-1 quantification by a commercial ELISA kit; liver triglyceride by Triglyceride E-test kit (Wako, Japan); liver hydroxyproline quantification by hydrolysis method; histological analyses for liver section; HE staining and estimation of NAFLD Activity score; Sirius-red staining and estimation of fibrosis area (with and without perivascular space subtracted); oil red staining and estimation of fat deposition area; F4/80 immunohistochemistry staining and estimation of inflammation area; alpha-SMA immunohistochemistry staining and estimation of α-SMA positive area Gene expression assays using total RNA from the liver.
Statistical tests were performed using one-way ANOVA followed by Dunnett's test and the Mann-Whitney test, as appropriate, for the multiple group comparisons. P values <0.05 are considered statistically significant.

[5] = system: NASH in adults with liver fibrosis; details: human, in vivo; cited from earlier work

CC[C@H]1[C@@H](O)[C@@H]2[C@H](CC[C@]3(C)[C@@H]([C@H](C)CCC(=O)O)CC[C@@H]23)[C@@]2(C)CC[C@@H](O)C[C@@H]12 [OCA, Obeticholic acid]
Safety concerns [1]: can be associated with pruritus, as well as with increased LDL cholesterol

C[C@H](CCC(=O)O)[C@H]1CC[C@H]2[C@@H]3[C@@H](O)C[C@@H]4C[C@H](O)CC[C@]4(C)[C@H]3CC[C@]12C [UDCA, Ursodeoxycholic acid]
population that does not respond (PBC): 30-40%

Cn1nc(C(=O)N(Cc2ccccc2)Cc2ccc(C(=O)O)cc2)c2c1-c1cc(Cl)ccc1OC2 [Compound A, 4-((N-benzyl-8-chloro-1-methyl-1,4-dihydrochromeno[4,3-c]pyrazole-3 carboxamido)methyl)benzoic acid]
ALT reduction (ANIT-induced cholestasis; 1.5 mg/kg): 75%
AST reduction (ANIT-induced cholestasis; 1.5 mg/kg): 80%
GGT reduction (ANIT-induced cholestasis; 1.5 mg/kg): 85%
ANIT-induced histologic alterations in the liver (ANIT-induced cholestasis; rat, in vivo): reduced the ANIT-induced histologic alterations in the liver
Reduction of fibrosis (STAM mouse model of NASH): to a greater extent than OCA
Reduction of hepatic steatosis (STAM mouse model of NASH): to a greater extent than OCA
Reduction of hepatocellular ballooning (STAM mouse model of NASH): to a greater extent than OCA
Reduction of lobular inflammation (STAM mouse model of NASH): to a greater extent than OCA
accumulation ratio ([2]; MAD): mild
Steady-state reached ([2]; MAD, daily for 14 days): ≤ 5 days
AUC decrease ([2]; SAD, with high-fat meal): 26%
Cmax decrease ([2]; SAD, with high-fat meal): 58%
Severe drug-related AEs ([2]; any cohort): No severe drug-related AEs were reported
Safety and pharmacological activity ([2]; daily doses of 5 mg to 750 mg): safe and pharmacological active
SAEs attributed ([2]; daily doses up to 250 mg for 14 days): No SAEs have been attributed
Tmax ([2]; human, plasma, oral, SAD, with high-fat meal, read-out: median Tmax): 4 h
Cmax ([2]; human, plasma, oral, SAD, 5-750 mg doses): 177 to 12700 ng/mL
half-life ([2]; human, plasma, oral, SAD, 5-750 mg doses, read-out: mean t1/2): 11.7 to 23.5 h
Tmax ([2]; human, plasma, oral, SAD, 5-750 mg doses, read-out: median plasma Tmax): 1.75 to 3 h
Tolerability ([2]; maximum doses tested (750 mg SAD and 250 mg MAD)): well tolerated
plasma FGF19 levels ([3]; MAD, Day 14): dose-dependent increase
plasma FGF19 median Cmax ([3]; MAD, Day 14, 250 mg): 979 pg/mL
serum C4 levels ([3]; MAD, similar dose range): decline
total bile acid (TBA) levels ([3]; MAD, similar dose range): decline
FGF19 with increasing doses ([3]; doses even beyond 250 mg): continues to rise
Serum FGF15 levels ([3]; in vivo): increased with Compound A treatment in a dose-dependent manner
Ballooning, NAS (mean +/− SD) ([4]; Study 1): 1.3 ± 0.8
Ballooning, Score 0 (number of animals/group) ([4]; Study 1): 2
Ballooning, Score 1 (number of animals/group) ([4]; Study 1): 3
Ballooning, Score 2 (number of animals/group) ([4]; Study 1): 5
Fibrosis, NAS (mean +/− SD) ([4]; Study 1): 0.51 ± 0.25
Inflammatory infiltrates, Score 0 (number of animals/group) ([4]; Study 1): 7
Inflammatory infiltrates, Score 1 (number of animals/group) ([4]; Study 1): 2
Inflammatory infiltrates, Score 2 (number of animals/group) ([4]; Study 1): 1
Inflammatory infiltrates, Score 3 (number of animals/group) ([4]; Study 1): 0
NAS (mean +/− SD) ([4]; Study 1, dosed from age 6-9 weeks): 2.7 ± 1.1
Ballooning, NAS (mean +/− SD) ([4]; Study 2): 0.7 ± 0.8
Ballooning, Score 0 (number of animals/group) ([4]; Study 2): 5
Ballooning, Score 1 (number of animals/group) ([4]; Study 2): 3
Ballooning, Score 2 (number of animals/group) ([4]; Study 2): 2
Fibrosis, NAS (mean +/− SD) ([4]; Study 2): 0.55 ± 0.32
Inflammatory infiltrates, Score 0 (number of animals/group) ([4]; Study 2): 3
Inflammatory infiltrates, Score 1 (number of animals/group) ([4]; Study 2): 1
Inflammatory infiltrates, Score 2 (number of animals/group) ([4]; Study 2): 4
Inflammatory infiltrates, Score 3 (number of animals/group) ([4]; Study 2): 2
NAS (mean +/− SD) ([4]; Study 2, dosed from age 9-12 weeks): 2.7 ± 1.1
Ballooning compared with the STAM-Vehicle group ([4]; both studies): trend for the reduction of ballooning
Fibrosis area compared with the STAM-Vehicle group ([4]; both studies): trend for the reduction of the fibrosis area
Inflammatory infiltrates compared with the STAM-Vehicle group ([4]; both studies 1 and 2): significant reduction of Inflammatory infiltrates
NAS compared with the STAM-Vehicle group ([4]; both studies 1 and 2): significant reduction in NAS

CCCCOCCOc1ccc(-c2ccc3c(c2)/C=C(/C(=O)Nc2ccc([S@@+]([O-])Cc4cncn4CCC)cc2)CCCN3CC(C)C)cc1 [cenicriviroc, (S,E)-8-(4-(2-butoxyethoxy)phenyl)-1-(2-methylpropyl)-N-(4-(((1-propyl-1H-imidazol-5-yl)methyl)sulfinyl)phenyl)-1,2,3,4-tetrahydrobenzo[b]azocine-5-carboxamide]
Adverse effects [5]: can induce fatigue or diarrhea in a small part of the patients
Fibrosis [5]: reduction of fibrosis
Improvement of NAS [5]: no significant impact
